This is an account of results in patent publication US20170239351A1, “Therapeutic Combinations of a BTK Inhibitor, a PI3K Inhibitor, a JAK-2 Inhibitor, a PD-1 Inhibitor, and/or a PD-L1 Inhibitor” (Acerta Pharma B.V., priority 2014, published 2017).

“Also recorded” adds a separate entry of the source.

Data set [1] relates to human platelet-mediated thrombosis. Further details: species or system VWF HA1 mice (human platelets). The following applies: in vivo. How it is done:
[…]. Injury to the vessel wall of arterioles ([…] diameter) was performed using a pulsed nitrogen dye laser (440 nm, Photonic Instruments) applied through a 20× water-immersion Olympus objective (LUMPlanF1, 0.5 numerical aperature (NA)) of a Zeiss Axiotech vario microscope. Human platelet and wall interactions were visualized by fluorescence microscopy using a system equipped with a Yokogawa CSU-22 spinning disk confocal scanner, iXON EM camera, and 488 nm and 561 nm laser lines to detect BCECF-labeled and rhodamine-labeled platelets, respectively (Revolution XD, Andor Technology). The extent of thrombus formation was assessed for 2 minutes after injury and the area (μm^2) of coverage determined (Image IQ, Andor Technology).
. The BTK inhibitor-treated human platelets were fluorescently labeled and infused continuously through a catheter inserted into the femoral artery. Their behavior in response to laser-induced vascular injury was monitored in real time using two-channel confocal intravital microscopy (Furie and Furie, J. Clin. Invest. 2005, 115(12), 2255-62). Upon induction of arteriole injury untreated platelets rapidly formed thrombi with an average thrombus size of […] (mean±s.e.m.), as shown in FIG. 124 and FIG. 125. […]. […]. […]

The next data set concerns the target T1, BTK (Mus musculus, UniProt P35991).
T1 construct: MDSCs were purified from tumor bearing PDA mice; endogenous in cells; host or cells: granulocytic and monocytic MDSCs purified from tumour-bearing PDA mice
In words: Molecular probe assay of irreversible BTK occupancy in MDSCs. The format is in vivo, tumor bearing PDA mice. The following applies: 15 mg/kg BID; Day 8 at 4 hours post dose (N=5). The source says:
A molecular probe assay was used to calculate the percent irreversible occupancy of total BTK.

In a further data set the target is EGFR (Homo sapiens, UniProt P00533). In words: EGF-induced EGFR phosphorylation in A431 cells (phosphoflow). The conditions noted are these: 10 μM (highest concentration tested).
Data set [2] can be described thus: Glutathione binding and depletion in vitro. It counts as in vitro ADME.
For another data set, the system named is KrasL2 NSCLC. In words: KrasL2 NSCLC model. The following applies: in vivo.

EGFR, sequence (P00533 25-1210): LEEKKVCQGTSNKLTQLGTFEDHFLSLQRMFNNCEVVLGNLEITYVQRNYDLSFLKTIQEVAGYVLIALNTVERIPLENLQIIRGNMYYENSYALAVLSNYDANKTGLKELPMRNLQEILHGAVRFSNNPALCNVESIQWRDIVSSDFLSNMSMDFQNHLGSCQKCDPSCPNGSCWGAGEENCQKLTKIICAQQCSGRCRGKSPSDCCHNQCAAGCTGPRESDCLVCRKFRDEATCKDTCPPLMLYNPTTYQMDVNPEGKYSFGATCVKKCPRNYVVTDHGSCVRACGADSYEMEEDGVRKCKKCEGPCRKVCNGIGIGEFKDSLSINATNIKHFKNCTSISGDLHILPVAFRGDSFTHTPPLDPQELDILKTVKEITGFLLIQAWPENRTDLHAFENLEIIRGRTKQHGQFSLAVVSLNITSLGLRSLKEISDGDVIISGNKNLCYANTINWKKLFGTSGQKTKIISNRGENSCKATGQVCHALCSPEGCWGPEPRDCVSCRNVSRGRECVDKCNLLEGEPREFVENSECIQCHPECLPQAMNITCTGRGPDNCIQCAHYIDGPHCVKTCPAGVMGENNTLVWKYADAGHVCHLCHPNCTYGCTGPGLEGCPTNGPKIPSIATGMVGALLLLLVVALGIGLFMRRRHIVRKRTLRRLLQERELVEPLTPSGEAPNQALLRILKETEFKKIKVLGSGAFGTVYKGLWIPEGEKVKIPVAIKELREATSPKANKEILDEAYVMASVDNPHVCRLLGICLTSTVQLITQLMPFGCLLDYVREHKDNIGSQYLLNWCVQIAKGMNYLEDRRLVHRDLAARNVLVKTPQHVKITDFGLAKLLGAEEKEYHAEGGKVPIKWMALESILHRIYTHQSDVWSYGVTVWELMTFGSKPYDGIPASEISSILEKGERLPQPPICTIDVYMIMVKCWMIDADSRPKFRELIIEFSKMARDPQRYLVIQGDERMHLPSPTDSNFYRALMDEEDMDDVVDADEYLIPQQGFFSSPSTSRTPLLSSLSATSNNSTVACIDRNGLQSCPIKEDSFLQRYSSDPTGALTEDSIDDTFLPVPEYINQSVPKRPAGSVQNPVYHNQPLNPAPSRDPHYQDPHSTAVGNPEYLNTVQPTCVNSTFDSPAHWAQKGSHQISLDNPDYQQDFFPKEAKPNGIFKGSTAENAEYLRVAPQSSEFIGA
T1 sequence (P35991 whole entry): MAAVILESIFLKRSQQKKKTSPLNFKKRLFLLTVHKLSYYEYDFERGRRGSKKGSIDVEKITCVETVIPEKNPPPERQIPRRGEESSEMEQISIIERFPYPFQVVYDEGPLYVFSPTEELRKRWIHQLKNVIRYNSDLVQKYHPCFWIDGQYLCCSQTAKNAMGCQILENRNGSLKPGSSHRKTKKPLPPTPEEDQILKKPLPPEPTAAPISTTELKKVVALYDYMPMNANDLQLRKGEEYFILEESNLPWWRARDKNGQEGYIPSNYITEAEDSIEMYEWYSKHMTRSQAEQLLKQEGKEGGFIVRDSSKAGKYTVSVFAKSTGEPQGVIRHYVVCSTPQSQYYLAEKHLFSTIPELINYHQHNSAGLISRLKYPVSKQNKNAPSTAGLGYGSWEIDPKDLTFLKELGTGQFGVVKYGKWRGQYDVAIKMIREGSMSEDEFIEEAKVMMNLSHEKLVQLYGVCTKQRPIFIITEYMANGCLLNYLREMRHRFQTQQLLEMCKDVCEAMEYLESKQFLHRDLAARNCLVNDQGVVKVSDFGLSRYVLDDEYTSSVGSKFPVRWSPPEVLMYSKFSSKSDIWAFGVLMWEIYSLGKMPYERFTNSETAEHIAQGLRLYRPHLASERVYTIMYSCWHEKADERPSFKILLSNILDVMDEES

For `CC#CC(=O)N1CCC[C@H]1c1nc(-c2ccc(C(=O)Nc3ccccn3)cc2)c2c(N)nccn12` [Formula (XVIII), (S)-4-(8-amino-3-(1-(but-2-ynoyl)pyrrolidin-2-yl)imidazo[1,5-a]pyrazin-1-yl)-N-(pyridin-2-yl)benzamide], in data set [1], the “effect on thrombus formation” value is “does not interfere with thrombus formation”. In addition, the “BTK occupancy in granulocytic and monocytic MDSC compartment” value at BTK was “Complete BTK occupancy”. For the same compound, at EGFR, the “inhibition of EGFR phosphorylation” value is “no inhibition; also recorded: does not inhibit EGFR”. The “glutathione binding and depletion” value in data set [2] was “binds to glutathione but does not deplete glutathione”. Besides, in the data set on KrasL2 NSCLC, the “immunosuppressive tumor associated MDSCs” value is “significant reduction in immunosuppressive tumor associated MDSCs”, the “immunosuppressive tumor associated TAMs” value is listed as “significant reduction in immunosuppressive tumor associated TAMs” and the “immunosuppressive tumor associated Tregs” value is “significant reduction in immunosuppressive tumor associated Tregs”.
